Test system: TFEB
Assay: TFEB nuclear translocation assay, HeLa wt cells
Assay type: cell-based
Settings: Homo sapiens, HeLa, 2 h, 2 hrs compound treatment, Table 1 does not say HeLa wt or TRPML1 KO
How it was run: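 HeLa wt or TRPML1 KO cells treated 2 hrs with compounds at 37° C, fixed in 4% PFA, immunostained with anti-TFEB plus Alexa 488 secondary and Hoechst. Imaged at ×20, four fields/well; read-out is nuclear/perinuclear-ring TFEB intensity ratio, reported as AC50.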

Row | Compound | AC50 [µM]
1 | O=S(=O)(Nc1ccccc1N1CCC(c2ccc(Cl)cc2F)CC1)c1c(F)cccc1F [Compound A-81, N-{2-[4-(4-chloro-2-fluorophenyl)piperidin-1-yl]phenyl}-2,6-difluorobenzene-1-sulfonamide] | ≥ 10
2 | O=S(=O)(Nc1ccccc1N1CCC(c2ccc(Cl)cc2F)CC1)c1cc(F)ccc1F [Compound A-82, N-{2-[4-(4-chloro-2-fluorophenyl)piperidin-1-yl]phenyl}-2,5-difluorobenzene-1-sulfonamide] | ≥ 10
3 | O=S(=O)(Nc1ccccc1N1CCC(c2ccc(Cl)cc2F)CC1)c1ccc(C(F)(F)F)cc1 [Compound A-83, N-{2-[4-(4-chloro-2-fluorophenyl)piperidin-1-yl]phenyl}-4-(trifluoromethyl)benzene-1-sulfonamide] | ≤ 2
4 | CN(C)S(=O)(=O)c1ccc(S(=O)(=O)Nc2nc(C3CCN(c4ccc(Cl)cc4F)CC3)cn2C)cc1 [Compound A-84, N4-{4-[1-(4-chloro-2-fluorophenyl)piperidin-4-yl]-1-methyl-1H-imidazol-2-yl}-N1,N1-dimethylbenzene-1,4-disulfonamide] | ≥ 10
5 | O=C1c2ccccc2S(=O)(=O)N1c1ccccc1N1CCC(c2ccc(Cl)cc2F)CC1 [Compound A-85, 2-{2-[4-(4-chloro-2-fluorophenyl)piperidin-1-yl]phenyl}-2,3-dihydro-1λ^6,2-benzothiazole-1,1,3-trione] | ≥ 10
6 | CN(C)S(=O)(=O)c1ccc(S(=O)(=O)N2CCN(C3CCN(c4ccc(Cl)cc4F)CC3)C2=O)cc1 [Compound A-86, 4-((3-(1-(4-chloro-2-fluorophenyl)piperidin-4-yl)-2-oxoimidazolidin-1-yl)sulfonyl)-N,N-dimethylbenzenesulfonamide] | ≥ 10
7 | O=S(=O)(Nc1ccccc1N1CCC(c2ccc(Cl)cc2F)CC1)c1ccc(F)cc1F [Compound A-87, N-{2-[4-(4-chloro-2-fluorophenyl)piperidin-1-yl]phenyl}-2,4-difluorobenzene-1-sulfonamide] | ≥ 10
8 | Cc1ccc(S(=O)(=O)Nc2ccccc2N2CC=C(c3ccc(Cl)cn3)CC2)cc1 [Compound A-88, N-(2-{5-chloro-1′,2′,3′,6′-tetrahydro-[2,4′-bipyridin]-1′-yl}phenyl)-4-methylbenzene-1-sulfonamide] | 2.01 to 8
9 | Cc1nc(N2CCN(c3ccc(Cl)cc3F)CC2=O)cn1S(=O)(=O)c1ccc(S(=O)(=O)N(C)C)cc1 [Compound A-89, 4-((4-(4-(4-chloro-2-fluorophenyl)-2-oxopiperazin-1-yl)-2-methyl-1H-imidazol-1-yl)sulfonyl)-N,N-dimethylbenzenesulfonamide] | ≤ 2
10 | O=S(=O)(Nc1ccccc1N1CCC(c2ccc(Cl)cc2F)CC1)c1cc(F)cc(F)c1 [Compound A-91, N-{2-[4-(4-chloro-2-fluorophenyl)piperidin-1-yl]phenyl}-3,5-difluorobenzene-1-sulfonamide] | ≥ 10
11 | Cc1ccc(S(=O)(=O)Nc2ccccc2N2CCC(c3ccccn3)CC2)cc1 [Compound A-92, 4-methyl-N-{2-[4-(pyridin-2-yl)piperidin-1-yl]phenyl}benzene-1-sulfonamide] | ≤ 2
12 | Cc1ccc(S(=O)(=O)Nc2ccccc2-n2ccc(-c3ccc(Cl)cc3F)c2)cc1 [Compound A-93, N-{2-[3-(4-chloro-2-fluorophenyl)-1H-pyrrol-1-yl]phenyl}-4-methylbenzene-1-sulfonamide] | ≥ 10
13 | O=S1(=O)c2ccccc2CN1c1ccccc1N1CCC(c2ccc(Cl)cc2F)CC1 [Compound A-94, 2-{2-[4-(4-chloro-2-fluorophenyl)piperidin-1-yl]phenyl}-2,3-dihydro-1λ^6,2-benzothiazole-1,1-dione] | 2.01 to 8
14 | CN(C)S(=O)(=O)c1ccc(S(=O)(=O)n2ccc(C3CCN(c4ncc(Cl)cc4F)CC3)n2)cc1 [Compound A-96, 4-((3-(1-(5-chloro-3-fluoropyridin-2-yl)piperidin-4-yl)-1H-pyrazol-1-yl)sulfonyl)-N,N-dimethylbenzenesulfonamide] | ≥ 10
15 | O=S(=O)(Nc1ccccc1N1CCC(c2ccc(Cl)cc2F)CC1)c1cccc(F)c1F [Compound A-97, N-{2-[4-(4-chloro-2-fluorophenyl)piperidin-1-yl]phenyl}-2,3-difluorobenzene-1-sulfonamide] | ≥ 10
16 | CS(=O)(=O)c1ccc(S(=O)(=O)Nc2ccccc2N2CCC(c3ccc(Cl)cc3F)CC2)cc1 [Compound A-98, N-{2-[4-(4-chloro-2-fluorophenyl)piperidin-1-yl]phenyl}-4-methanesulfonylbenzene-1-sulfonamide] | ≤ 2
17 | COc1ccc(S(=O)(=O)Nc2ccccc2N2CCC(c3ccc(Cl)cc3F)CC2)cc1 [Compound A-99, N-{2-[4-(4-chloro-2-fluorophenyl)piperidin-1-yl]phenyl}-4-methoxybenzene-1-sulfonamide] | ≤ 2
18 | CS(=O)(=O)c1ccc(S(=O)(=O)Nc2ccccc2N2CCC(c3ccc(F)cc3F)CC2)cc1 [Compound A-100, N-{2-[4-(2,4-difluorophenyl)piperidin-1-yl]phenyl}-4-methanesulfonylbenzene-1-sulfonamide] | ≤ 2

Row | Compound | AC50 [µM]
19 | N#Cc1ccc(S(=O)(=O)Nc2ccccc2N2CCC(c3ccc(Cl)cc3F)CC2)cc1 [Compound A-101, N-{2-[4-(4-chloro-2-fluorophenyl)piperidin-1-yl]phenyl}-4-cyanobenzene-1-sulfonamide] | 2.01 to 8
20 | Cc1ccc(S(=O)(=O)Nc2ccccc2N2CCC(c3ccc(Cl)cc3F)C2)cc1 (centres unmarked) [Compound A-102, N-{2-[3-(4-chloro-2-fluorophenyl)pyrrolidin-1-yl]phenyl}-4-methylbenzene-1-sulfonamide] | 2.01 to 8
21 | Cc1ccc(S(=O)(=O)Nc2ccccc2N2CCC(c3ccc(Cl)cn3)CC2)cc1 [Compound A-103, N-{2-[4-(5-chloropyridin-2-yl)piperidin-1-yl]phenyl}-4-methylbenzene-1-sulfonamide] | ≤ 2
22 | CN(C)S(=O)(=O)c1ccc(S(=O)(=O)N(C)c2ccccc2N2CCC(c3ccc(Cl)cc3F)CC2)cc1 [Compound A-104, N1-{2-[4-(4-chloro-2-fluorophenyl)piperidin-1-yl]phenyl}-N1,N4,N4-trimethylbenzene-1,4-disulfonamide] | ≤ 2
23 | Cc1noc(NS(=O)(=O)c2ccc(S(=O)(=O)N(C)C)cc2)c1C1CCN(c2ccc(Cl)cc2F)CC1 [Compound A-105, N4-{4-[1-(4-chloro-2-fluorophenyl)piperidin-4-yl]-3-methyl-1,2-oxazol-5-yl}-N1,N1-dimethylbenzene-1,4-disulfonamide] | ≥ 10
24 | O=S(=O)(Nc1ccccc1N1CCC(c2ccc(Cl)cc2F)CC1)c1ccccc1CO [Compound A-106, N-{2-[4-(4-chloro-2-fluorophenyl)piperidin-1-yl]phenyl}-2-(hydroxymethyl)benzene-1-sulfonamide] | ≥ 10
25 | Cc1ccc(S(=O)(=O)N(C)c2ccccc2N2CCC(c3ccc(Cl)cc3F)CC2)cc1 [Compound A-107, N-{2-[4-(4-chloro-2-fluorophenyl)piperidin-1-yl]phenyl}-N,4-dimethylbenzene-1-sulfonamide] | ≥ 10
26 | CN(C)S(=O)(=O)c1ccc(NS(=O)(=O)c2ccccc2N2CCC(c3ccc(Cl)cc3F)CC2)cc1 [Compound A-108, 4-((2-(4-(4-chloro-2-fluorophenyl)piperidin-1-yl)phenyl)sulfonamido)-N,N-dimethylbenzenesulfonamide] | ≤ 2
27 | CN(C)S(=O)(=O)c1ccc(S(=O)(=O)Nc2cccnc2N2CCC(c3ccc(Cl)cc3F)CC2)cc1 [Compound A-109, N4-{2-[4-(4-chloro-2-fluorophenyl)piperidin-1-yl]pyridin-3-yl}-N1,N1-dimethylbenzene-1,4-disulfonamide] | ≤ 2
28 | COc1ccc(S(=O)(=O)Nc2cccnc2N2CCN(c3ncc(Cl)cc3F)CC2)cc1 [Compound A-110, N-{2-[4-(5-chloro-3-fluoropyridin-2-yl)piperazin-1-yl]pyridin-3-yl}-4-methoxybenzene-1-sulfonamide] | ≥ 10
29 | Cc1ccc(NS(=O)(=O)c2ccccc2N2CCC(c3ccc(Cl)cc3F)CC2)cc1 [Compound A-111, 2-(4-(4-chloro-2-fluorophenyl)piperidin-1-yl)-N-(p-tolyl)benzenesulfonamide] | ≥ 10
30 | CN(C)S(=N)(=O)c1ccc(S(=O)(=O)Nc2ccccc2N2CCC(c3ccc(Cl)cc3F)CC2)cc1 (centres unmarked) [Compound A-112, 4-({2-[4-(4-chloro-2-fluorophenyl)piperidin-1-yl]phenyl}sulfamoyl)-N,N-dimethylbenzene-1-sulfonoimidamide] | ≤ 2
31 | O=S(=O)(Nc1cccc(N2CCC(c3ccc(Cl)cc3F)CC2)c1)c1ccccc1F [Compound A-114, N-{3-[4-(4-chloro-2-fluorophenyl)piperidin-1-yl]phenyl}-2-fluorobenzene-1-sulfonamide] | ≥ 10
32 | CN(C)S(=O)(=O)c1ccc(S(=O)(=O)Nc2ccccc2N2CCC(O)(c3ccc(Cl)cc3F)CC2)cc1 [Compound A-115, N4-{2-[4-(4-chloro-2-fluorophenyl)-4-hydroxypiperidin-1-yl]phenyl}-N1,N1-dimethylbenzene-1,4-disulfonamide] | ≤ 2
33 | O=S(=O)(Nc1cccnc1N1CCN(c2ncc(Cl)cc2F)CC1)c1ccc(OC(F)(F)F)cc1 [Compound A-116, N-{2-[4-(5-chloro-3-fluoropyridin-2-yl)piperazin-1-yl]pyridin-3-yl}-4-(trifluoromethoxy)benzene-1-sulfonamide] | ≥ 10
34 | COc1ccc(S(=O)(=O)Nc2cccnc2N2CCN(c3ccc(C#N)cc3F)CC2)cc1 [Compound A-117, N-{2-[4-(4-cyano-2-fluorophenyl)piperazin-1-yl]pyridin-3-yl}-4-methoxybenzene-1-sulfonamide] | ≥ 10
35 | COc1ccc(S(=O)(=O)Nc2ccccc2N2CCC(c3ccc(F)cc3F)CC2)nc1 [Compound A-118, N-{2-[4-(2,4-difluorophenyl)piperidin-1-yl]phenyl}-5-methoxypyridine-2-sulfonamide] | 2.01 to 8
